Measurements as given in US20150366966A1, “Stable Aqueous Solution” (SENJU PHARMACEUTICAL CO., LTD., priority 2013, published 2015).

What was measured:
[1] = Solubility of compound A in water; format: physicochemical
Protocol: This has already been shown by the fact that the heat stability of compound A in an aqueous solution decreases extremely when polysorbate 80 conventionally widely used as a solubilizer of poorly soluble drugs is added (see below-mentioned Experimental Example 2, Comparative Example 1).

[2] = Light stability of compound A in aqueous solution (residual ratio by HPLC after white light irradiation); format: physicochemical
Protocol: An aqueous solution of compound A was prepared according to the following formulation. In 0.1% phosphate buffer was added a predetermined amount of tyloxapol, octoxynol, polysorbate 80, HCO-60 or MYS-40, and the mixture was adjusted to […] with sodium hydroxide. Compound A in the predetermined amount in the following formulation was dissolved in said solution, and the mixture was sterilized by filtration with a 0.22 μm membrane filter, and filled in a 5 mL colorless glass ampoule. Using a photostability testing device (model: LT-120A-WCD, manufactured by Nagano Science Co., Ltd.), the ampoule was exposed to white light (total illumination 12000 lux·h and 24000 lux·h), and the content of compound A in the glass ampoule was measured.
Compound A after storage was quantified by high performance liquid chromatography using the absolute calibration curve method (the Japanese Pharmacopoeia). […]
An aqueous solution of compound A was prepared according to the following formulation. […] The glass ampoule was placed, under light irradiation conditions and storage conditions at 80° C. for 1 week, and the content of each compound A was measured. Compound A was quantified in the same manner as in Experimental Example 1 and Experimental Example 2.

PPARδ = biological target: T1, PPARδ (Homo sapiens, UniProt Q03181); conditions: reported in WO 03/033493 and WO 2008/143254; cited from earlier work
T1 sequence (Q03181 1-441): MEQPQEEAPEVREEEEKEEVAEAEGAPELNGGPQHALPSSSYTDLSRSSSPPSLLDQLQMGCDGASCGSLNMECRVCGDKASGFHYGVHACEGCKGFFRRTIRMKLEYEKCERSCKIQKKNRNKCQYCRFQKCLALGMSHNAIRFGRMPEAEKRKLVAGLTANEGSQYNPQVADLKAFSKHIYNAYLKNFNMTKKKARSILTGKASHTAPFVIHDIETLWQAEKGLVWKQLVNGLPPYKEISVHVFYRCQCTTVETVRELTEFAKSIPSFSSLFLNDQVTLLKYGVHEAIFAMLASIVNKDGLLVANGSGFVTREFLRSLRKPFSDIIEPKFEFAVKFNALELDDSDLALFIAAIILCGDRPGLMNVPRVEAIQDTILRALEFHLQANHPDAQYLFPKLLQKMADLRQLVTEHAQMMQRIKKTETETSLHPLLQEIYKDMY

- solubility in water (in words) [1]: practically insoluble in water
SMILES: Cc1cc2c(CCc3sc(-c4ccc(C(F)(F)F)cc4)nc3C(C)C)noc2cc1OCC(=O)O [Compound A, (3-{2-[4-isopropyl-2-(4-trifluoromethyl)phenyl-5-thiazolyl]ethyl}-5-methyl-1,2-benzisoxazol-6-yl)oxyacetic acid]
- stability to light in aqueous solution (in words) [2]: extremely unstable to light in an aqueous solution
- PPARδ agonist action (in words) (PPARδ): PPARδ agonist
